Earlier results in US20100029676A1 (priority 2005, published 2010).

System: imatinib-resistant BCR-ABL mutants
Details: number of mutants active / tested; Weisberg et al.

## Cc1cn(-c2cc(NC(=O)c3ccc(C)c(Nc4nccc(-c5cccnc5)n4)c3)cc(C(F)(F)F)c2)cn1 [AMN107]
  imatinib-resistant BCR-ABL mutants against which significantly active: 32/33
